Source: US12274830B2, “Nitric oxide inhalation therapy for infants with bronchiolitis” (BEYOND AIR LTD, priority 2015, dated 2025)
“Also recorded” adds a separate entry of the source.

Key:
[1] = test system: Serracia sp.; details: 200 ppm gNO; cited from earlier work
[2] = test system: bacteria at 10E5 CFU/ml isolated from patients; details: 200 ppm gNO, cited from earlier work
[3] = test system: infants with acute bronchiolitis; experiment: Safety and tolerability of intermittent inhalations of 160 ppm NO in hospitalized infants with acute bronchiolitis (randomized double blind study); type: in vivo, human
Procedure: The study was conducted at the Soroka University Medical Center in southern Israel, and was approved by the Institutional and National Human Ethics Committee. A detailed study overview is attached as an online supplement. This study is registered with clinical trial number NCT01768884.
The study was a randomized, prospective, single center, double blind study of 2-11 month old hospitalized infants with acute bronchiolitis (FIG. 1).
Subjects were screened within 4 hours of admission and randomized (1:1) to receive intermittent inhalations of 160 ppm NO along with standard treatment (NO group) or intermittent inhalations of 02/air mixture and standard treatment (control group), for a maximum of 25 inhalations.
Standard Supportive Treatment: This treatment included humidified oxygen, nasal suction when needed and hydration (oral, intra-venous or nasogastric tube fluids). The use of other concomitant medications was allowed, according to the ward's common practice.
Nitric Oxide Treatment: Subjects spontaneously inspired 160 ppm NO in fixed flow mode via a facemask. Nitric Oxide (Maxima, Israel) of 800 ppm (0.08%) NO balanced with 99.999% purity Nitrogen (N2), was titrated into the O2/air inspiratory delivery line. Inhaled NO, NO2 and O2 concentrations in the patient breathing circuit were continuously monitored using dedicated gas analyzers. (AeroNox, International medical, USA).
Primary Outcome: Safety measures, included % MetHb and NO2 production associated with NO treatment, bleeding episodes and any other adverse event (AE). Study threshold for NO2 and MetHb was set at 5 ppm and 5%, respectively.
The primary outcome was safety and tolerability of intermittent inhalations of 160 ppm NO, given to infants 2 to 11 months with acute bronchiolitis. Safety measures included % MetHb associated with NO treatment (safety threshold was determined as >5% for MetHb and >5 ppm for NO2), as well as any other AEs. Tolerability measures included the proportions of subjects who prematurely discontinued the study for any reason, and the proportion of subjects who prematurely discontinued the treatment due to severe SAEs.
The research staff was divided into “blinded” and “unblinded” groups. The unblinded staff administered the inhalations to the infants and monitored % MetHb, % SpO2 (co-oximeter, RAD57/RAD 87, Masimo Corporation, USA), fractional inhaled O2 (FiO2), NO, NO2 levels. The blinded group included the primary investigator and all other staff directly involved with patient care. Safety threshold for NO2 and MetHb was set at 5 ppm and 5%, respectively. It should be emphasized that both treatments, NO/O2 (NO treatment) as well as O2/air mixture (control) were given via the same device, therefore, parents were also blinded to the treatment arm.
Each patient was given 5 inhalations a day of NO (treatment group) or oxygen (control group), along with the standard supportive treatment, for a maximum of 25 inhalations (based on phase I safety data). Each participant was examined and evaluated using the severity symptom score by a blinded pediatricians every […] (9 am and 3 pm). When the room-air SpO2 reached 92%, and the score was ≤5, and the patient was assessed as “ready for discharge”, the treatment was discontinued.
The data were managed and analyzed by independent statisticians group using the SAS version 9.1 (SAS Institute, Cary, North Carolina). […]

[4] = test system: Group B Streptococci; details: 200 ppm gNO; cited from earlier work
[5] = test system: P. aeruginosa (ATCC 27853); details: 200 ppm gNO; cited from earlier work
[6] = test system: healthy individuals; details: 160 ppm NO for 30 minutes, 5 times daily, 5 consecutive days; cited from earlier work
[7] = test system: MRSA; details: 200 ppm gNO; cited from earlier work
[8] = test system: S. aureus (ATCC 25923); details: 200 ppm gNO; cited from earlier work
[9] = previous in vitro and animal studies; cited from earlier work
[10] = test system: Klebsiella sp. #1; details: 200 ppm gNO; cited from earlier work
[11] = test system: S. maltophilia; details: 200 ppm gNO; cited from earlier work
[12] = average of the 13 bacteria above the line
[13] = NO Group (N = 21), Methemoglobin >5%
[14] = NO Group (N = 21), NO2 concentration >5 ppm
[15] = NO Group (N = 21), Oxyhemoglobin <89%

SMILES: [N]=O [NO, nitric oxide]
- +2.5 Log10 [1]: 4.9 hours
- LD100 [1]: 6 h
- Latent Period [1]: 4 h
- Reduction in CFU/ml for each gNO-exposed organism ([2]; 10E5 CFU/ml): 4-6 Log10 units
- +2.5 Log10, Average [2, 12]: 3.82 hours
- LD100, Average [2, 12]: 4.77 h
- Latent Period, Average [2, 12]: 2.77 h
- Bleeding episodes or deaths during the study ([3]; 160 ppm NO intermittent inhalation): no bleeding episodes or deaths; also recorded: no bleeding episodes
- NO2 elevations and clinical evidence of toxicity ([3]; 30 minutes of inhaled 160 ppm NO five time a day): neither associated with significant elevations in NO2 nor clinical evidence of toxicity; also recorded: no events of significant NO2 elevations
- Safety and tolerability versus control (standard supportive treatment) ([3]; ITT, PP): no statistically significant safety and tolerability differences; also recorded: comparable to those in the standard-supportive treatment
- Any AE, events (E) ([3]; NO Group (N = 21)): 22 E
- Any serious AE, events (E) ([3]; NO Group (N = 21)): 4 E
- Any serious AE, subjects n (%) ([3]; NO Group (N = 21)): 4 (19.0%) n (%)
- Any serious treatment-related AE, events (E) ([3]; NO Group (N = 21)): 0 E
- Any severe AE, events (E) ([3]; NO Group (N = 21)): 1 E
- Any severe AE, subjects n (%) ([3]; NO Group (N = 21)): 1 (4.8%) n (%)
- Any treatment-related AE, events ([3]; NO Group (N = 21)): 6 E
- Death, events (E) ([3]; NO Group (N = 21)): 0 E
- Death, subjects n (%) ([3]; NO Group (N = 21)): 0 (0.0%) n (%)
- Treatment withdrawal due to AE, events (E) ([3]; NO Group (N = 21)): 1 E
- Treatment withdrawal due to AE, subjects n (%) ([3]; NO Group (N = 21)): 1 (4.8%) n (%)
- Treatment-related AE: Blood and Lymphatic System Disorders, Events ([3]; NO Group (N = 21)): 5 Events
- Treatment-related AE: Investigations, Events ([3]; NO Group (N = 21)): 1 Events
- Treatment-related AE: Blood and Lymphatic System Disorders, subjects n (%) ([3]; NO Group (N = 21), MedDRA SOC): 4 (19.0%) n (%)
- Treatment-related AE: Investigations, subjects n (%) ([3]; NO Group (N = 21), MedDRA SOC): 1 (4.8%) n (%)
- Treatment-related AE: Methaemoglobinaemia, Events [3, 13]: 5 Events
- Treatment-related AE: Methaemoglobinaemia, subjects n (%) [3, 13]: 4 (19.0%) n (%)
- Treatment-related AE: NO2 increase, Events [3, 14]: 1 Events
- Treatment-related AE: NO2 increase, subjects n (%) [3, 14]: 1 (4.8%) n (%)
- Treatment-related AE: Oxyemoglobin decreased, Events [3, 15]: 1 Events
- Treatment-related AE: Oxyemoglobin decreased, subjects n (%) [3, 15]: 1 (4.8%) n (%)
- Any AE, subjects n (%) ([3]; NO Group (N = 21), intermittent 160 ppm NO + standard treatment): 10 (47.6%) n (%)
- Any treatment-related AE, subjects n (%) ([3]; NO Group (N = 21), possibly or probably related to study treatment): 5 (23.8%) n (%)
- Subjects in whom MetHb values >5% were observed more than once ([3]; NO group): 3 subjects
- Subjects with MetHb measurement >5% during the study treatment period, n (%) ([3]; NO group): 6 (28.5%) n (%)
- MetHb peak value at end of inhalation (mean) ([3]; NO group, each NO inhalation): 3.3±0.9%
- Maximum MetHb value ([3]; NO group, in two subjects): 5.6%
- Subjects who discontinued the study/study treatment, n (%) ([3]; NO group, tolerability): 2 (9.5%) n (%)
- SpMet level of infants undergoing the method ([3]; general statement referring to the Examples): ≤ 1%
- Cumulative effect / accumulation of MetHb over the treatment period ([3]; pre- vs end of inhalation MetHb levels): no cumulative effect; also recorded: no accumulation of MetHb
- +2.5 Log10 [4]: 1.5 hours
- LD100 [4]: 2 h
- Latent Period [4]: 1 h
- +2.5 Log10 [5]: 2.1 hours
- LD100 [5]: 3 h
- Latent Period [5]: 1 h
- Safety and tolerability in healthy individuals [6]: safe and well tolerated
- +2.5 Log10 [7]: 4.2 hours
- LD100 [7]: 5 h
- Latent Period [7]: 3 h
- +2.5 Log10 [8]: 3.3 hours
- LD100 [8]: 4 h
- Latent Period [8]: 3 h
- NO exposure needed before an anti-microbial effect was seen [9]: at least 2.5 hours
- +2.5 Log10 [10]: 3.5 hours
- LD100 [10]: 6 h
- Latent Period [10]: 3 h
- +2.5 Log10 [11]: 2.8 hours
- LD100 [11]: 4 h
- Latent Period [11]: 2 h
